# Test results published in BindingDB's records for doi:10.1016/j.bmc.2004.10.042 (Uppsala University, 2005).
# pKi: −log10 of the molar value.
# Target: T1, Dimer of Gag-Pol polyprotein [489-587] (Human immunodeficiency virus 1, UniProt P12497)
# T1 construct: 489-587
# Test: Enzyme Inhibition Assay
# Details: pH 5; 30 °C
# Protocol: The effects of the inhibitors on the activity of HIV-1 proteinase was determined by a fluorometric assay with an internally quenched fluorescent peptide substrate. Measurements were performed in 96-well plates with a Fluoroskan plate reader. Excitation and emission wavelengths were 355 and 500 nm, respectively.Data were analyzed by nonlinear regression by using SIMFIT, and an equation for tightly binding inhibitors.
row,SMILES,pKi
1,"Cc1ccc(-c2ccccc2CN2C[C@H](O)[C@@H](O)CN(Cc3ccccc3-c3ccc(C)cc3)S2(=O)=O)cc1 [(4S,5S)-4,5-dihydroxy-2,7-bis({[2-(4-methylphenyl)phenyl]methyl})-1,2,7-thiadiazepane-1,1-dione]",5.82
2,"COc1ccc(-c2ccccc2CN2C[C@H](O)[C@@H](O)CN(Cc3ccccc3-c3ccc(OC)c(OC)c3)S2(=O)=O)cc1OC [(4S,5S)-2,7-bis({[2-(3,4-dimethoxyphenyl)phenyl]methyl})-4,5-dihydroxy-1,2,7-thiadiazepane-1,1-dione]",5.03
3,"CCCCc1ccc(-c2ccccc2CN2C[C@H](O)[C@@H](O)CN(Cc3ccccc3-c3ccc(CCCC)cc3)S2(=O)=O)cc1 [(4S,5S)-2,7-bis({[2-(4-butylphenyl)phenyl]methyl})-4,5-dihydroxy-1,2,7-thiadiazepane-1,1-dione]",5.72
4,"O=S1(=O)N(Cc2ccccc2-c2ccc(F)cc2)C[C@H](O)[C@@H](O)CN1Cc1ccccc1-c1ccc(F)cc1 [(4S,5S)-2,7-bis({[2-(4-fluorophenyl)phenyl]methyl})-4,5-dihydroxy-1,2,7-thiadiazepane-1,1-dione]",5.28
5,"CC(C)c1cccc(-c2ccccc2CN2C[C@H](O)[C@@H](O)CN(Cc3ccccc3-c3cccc(C(C)C)c3)S2(=O)=O)c1 [(4S,5S)-4,5-dihydroxy-2,7-bis({2-[3-(propan-2-yl)phenyl]phenyl}methyl)-1,2,7-thiadiazepane-1,1-dione]",5.49
6,"O=S1(=O)N(Cc2ccccc2-c2cccc(C(F)(F)F)c2)C[C@H](O)[C@@H](O)CN1Cc1ccccc1-c1cccc(C(F)(F)F)c1 [(4S,5S)-4,5-dihydroxy-2,7-bis({2-[3-(trifluoromethyl)phenyl]phenyl}methyl)-1,2,7-thiadiazepane-1,1-dione]",5.62
7,"O=S1(=O)N(Cc2ccccc2-c2cc3ccccc3o2)C[C@H](O)[C@@H](O)CN1Cc1ccccc1-c1cc2ccccc2o1 [(4S,5S)-2,7-bis({[2-(1-benzofuran-2-yl)phenyl]methyl})-4,5-dihydroxy-1,2,7-thiadiazepane-1,1-dione]",6.28
8,"O=S1(=O)N(Cc2ccccc2Cc2ccccc2)C[C@H](O)[C@@H](O)CN1Cc1ccccc1Cc1ccccc1 [(4S,5S)-2,7-bis[(2-benzylphenyl)methyl]-4,5-dihydroxy-1,2,7-thiadiazepane-1,1-dione]",5.60
9,"O=S1(=O)N(Cc2ccccc2-c2ccccc2)C[C@H](O)[C@@H](O)CN1Cc1ccccc1-c1ccccc1 [(4S,5S)-4,5-dihydroxy-2,7-bis[(2-phenylphenyl)methyl]-1,2,7-thiadiazepane-1,1-dione]",5.60
10,"Cc1cccc(-c2ccccc2CN2C[C@H](O)[C@@H](O)CN(Cc3ccccc3-c3cccc(C)c3)S2(=O)=O)c1 [(4S,5S)-4,5-dihydroxy-2,7-bis({[2-(3-methylphenyl)phenyl]methyl})-1,2,7-thiadiazepane-1,1-dione]",5.57
11,"CCS(=O)(=O)c1ccc(-c2ccccc2CN2C[C@H](O)[C@@H](O)CN(Cc3ccccc3-c3ccc(S(=O)(=O)CC)cc3)S2(=O)=O)cc1 [(4S,5S)-2,7-bis({2-[4-(ethanesulfonyl)phenyl]phenyl}methyl)-4,5-dihydroxy-1,2,7-thiadiazepane-1,1-dione]",5.28
12,"CSc1ccccc1-c1ccccc1CN1C[C@H](O)[C@@H](O)CN(Cc2ccccc2-c2ccccc2SC)S1(=O)=O [(4S,5S)-4,5-dihydroxy-2,7-bis({2-[2-(methylsulfanyl)phenyl]phenyl}methyl)-1,2,7-thiadiazepane-1,1-dione]",5.96
13,"COc1ccc(-c2ccccc2CN2C[C@H](O)[C@@H](O)CN(Cc3ccccc3-c3ccc(OC)cc3)S2(=O)=O)cc1 [(4S,5S)-4,5-dihydroxy-2,7-bis({[2-(4-methoxyphenyl)phenyl]methyl})-1,2,7-thiadiazepane-1,1-dione]",5.01
14,"O=[N+]([O-])c1cccc(-c2ccccc2CN2C[C@H](O)[C@@H](O)CN(Cc3ccccc3-c3cccc([N+](=O)[O-])c3)S2(=O)=O)c1 [(4S,5S)-4,5-dihydroxy-2,7-bis({[2-(3-nitrophenyl)phenyl]methyl})-1,2,7-thiadiazepane-1,1-dione]",5.13
15,"O=S1(=O)N(Cc2ccccc2-c2ccsc2)C[C@H](O)[C@@H](O)CN1Cc1ccccc1-c1ccsc1 [(4S,5S)-4,5-dihydroxy-2,7-bis({[2-(thiophen-3-yl)phenyl]methyl})-1,2,7-thiadiazepane-1,1-dione]",5.57
16,"COc1ccccc1-c1ccccc1CN1C[C@H](O)[C@@H](O)CN(Cc2ccccc2-c2ccccc2OC)S1(=O)=O [(4S,5S)-4,5-dihydroxy-2,7-bis({[2-(2-methoxyphenyl)phenyl]methyl})-1,2,7-thiadiazepane-1,1-dione]",5.29
17,"CC(=O)c1ccc(-c2ccccc2CN2C[C@H](O)[C@@H](O)CN(Cc3ccccc3-c3ccc(C(C)=O)cc3)S2(=O)=O)cc1 [(4S,5S)-2,7-bis({[2-(4-acetylphenyl)phenyl]methyl})-4,5-dihydroxy-1,2,7-thiadiazepane-1,1-dione]",5.28
18,"O=S1(=O)N(Cc2ccccc2/C=C/c2ccccc2)C[C@H](O)[C@@H](O)CN1Cc1ccccc1/C=C/c1ccccc1 [(4S,5S)-4,5-dihydroxy-2,7-bis({2-[(E)-2-phenylethenyl]phenyl}methyl)-1,2,7-thiadiazepane-1,1-dione]",5.70
19,"O=S1(=O)N(Cc2ccccc2)C[C@H](O)[C@@H](O)CN1Cc1ccccc1 [(4S,5S)-2,7-dibenzyl-4,5-dihydroxy-1,2,7-thiadiazepane-1,1-dione]",< 4.70
20,"O=S1(=O)N(Cc2ccccc2CCc2ccccc2)C[C@H](O)[C@@H](O)CN1Cc1ccccc1CCc1ccccc1 [(4S,5S)-4,5-dihydroxy-2,7-bis({[2-(2-phenylethyl)phenyl]methyl})-1,2,7-thiadiazepane-1,1-dione]",5.52
